According to patent publication US5583147A, “Amides for the treatment of atherosclerosis” (The Dupont Merck Pharmaceutical Company, priority 1994, dated 1996):

Molecular target: T1, Acyl-CoA: Cholesterol Acyltransferase (ACAT) (Rattus norvegicus, UniProt Q7TQM4)
T1 construct: centrifuged at 105,000×g for 1 hour to pellet the microsomes; from tissue; host or cells: liver microsomes of male Sprague Dawley rats
T1 sequence (Q7TQM4 1-524): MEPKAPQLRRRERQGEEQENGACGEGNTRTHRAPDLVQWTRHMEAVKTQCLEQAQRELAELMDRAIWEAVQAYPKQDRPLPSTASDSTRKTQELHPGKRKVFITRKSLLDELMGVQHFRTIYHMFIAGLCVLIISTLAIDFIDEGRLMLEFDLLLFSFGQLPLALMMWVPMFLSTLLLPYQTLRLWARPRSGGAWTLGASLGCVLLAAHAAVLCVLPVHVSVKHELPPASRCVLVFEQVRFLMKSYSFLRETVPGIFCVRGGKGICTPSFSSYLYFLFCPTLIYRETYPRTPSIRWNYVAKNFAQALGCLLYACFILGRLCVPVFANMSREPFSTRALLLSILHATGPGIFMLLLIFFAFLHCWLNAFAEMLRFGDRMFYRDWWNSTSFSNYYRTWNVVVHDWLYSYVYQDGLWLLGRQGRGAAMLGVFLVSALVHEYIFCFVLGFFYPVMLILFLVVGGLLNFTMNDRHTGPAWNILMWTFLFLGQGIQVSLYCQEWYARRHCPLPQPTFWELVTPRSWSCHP
Assay: Inhibition of Acyl-CoA: Cholesterol Acyltransferase (ACAT) in Hepatic Microsomes (In Vitro Assay)
Assay type: biochemical, rat (male Sprague Dawley)
Conditions: 75 μM 14C-oleoyl-CoA, pH 7.4, 37° C., 10 min, read-out: ACAT Inhibitory Activity (In Vitro) (IC50)
Method: A. Assay of the Inhibition of Acyl-CoA: Cholesterol Acyltransferase (ACAT) in Hepatic Microsomes (In Vitro Assay)
The ability of the compounds to inhibit ACAT, the enzyme responsible for the intracellular synthesis of cholesteryl esters, was tested as follows. Male Sprague Dawley rats weighing 150-300 g, were fed rat chow ad libitum. The animals were fasted for twenty-four hours prior to being euthanized by CO2. The livers were perfused in situ with 50 ml of cold 0.25 sucrose, excised, and homogenized in three volumes of 0.1M phosphate buffer, pH 7.4, that contained 0.5 mM EDTA (ethylenediamine-tetraacetic acid), 1.0 mM glutathione, 0.25M sucrose and […] leupeptin. Microsomes were obtained by differential centrifugation; the supernatant from an initial spin at 15,000×g for 15 minutes was centrifuged at 105,000×g for 1 hour to pellet the microsomes. The microsomes were suspended in homogenization buffer, reisolated by centrifugation, and stored at -70° C. Microsomes were used within one month of preparation.
The control assay in a final volume of 200 μl consisted of 200 μg of microsomal protein, 75 μM ^14 C-oleoyl-CoA (10,000 dpm/nmol) in 0.1M phosphate, pH 7.4, that contained 1 mM glutathione. Compounds were added in 5 μl of DMSO (dimethyl sulfoxide) and additional controls were run with DMSO only. All components, except the oleoyl-CoA, were preincubated for 15 min. at 37° C. prior to the initiation of the reaction by the addition of oleoyl-CoA. The assay was terminated after 10 min by the addition of 4 ml of chloroform:methanol (2:1, v/v). 20,000 dpm of ^3 H-cholesteryl oleate and 10 μg of unlabeled cholesteryl oleate and oleic acid were added as an internal standard and carriers, respectively. After allowing 10 min. for lipid extraction, the samples were centrifuged at 1,000×g for 10 min to separate the solvent layers. The chloroform layer containing the neutral lipids was spotted onto a Baker SI250-Pa silica gel TLC plate and the plate developed using a hexane:diethyl ether:acetic acid (170:30:1) v/v/v) mobile phase. The lipids were visualized by their interaction with iodine vapor and the cholesteryl ester spot was scraped into a scintillation vial and counted. The specific activity of ACAT in the control incubation averaged 260 pmol/min/mg microsomal protein. The data obtained are expressed as the concentration at which ACAT activity is inhibited by 50% (IC50).

Compound	IC50
CCCCCCSC(C(=O)Nc1c(SC)cc(C)nc1SC)c1ccc(C(C)C)cc1 (stereo not drawn) [Example 403, N-[2,4-bis(methylthio)-6-methyl-3-pyridyl]-α-hexylthio-4-isopropylphenylacetamide]	< 1000 nM
CSc1cc(C)nc(SC)c1NC(=O)C(SCc1ccc(Cl)cc1)c1ccc(C(C)C)cc1 (stereo not drawn) [Example 410, N-[2,4-bis(methylthio)-6-methyl-3-pyridyl]-α-(4-chloro-benzylthio)-4-isopropylphenylacetamide]	< 1000 nM
CCCCOc1ccc(CSC(C(=O)Nc2c(SC)cc(C)nc2SC)c2ccc(C(C)C)cc2)cc1 (stereo not drawn) [Example 411, N-[2,4-bis(methylthio)-6-methyl-3-pyridyl]-α-(4-butoxy-benzylthio)-4-isopropylphenylacetamide]	< 1000 nM
CCCCCCSC(C(=O)Nc1c(SC)cc(C)nc1SC)c1ccc(C(C)(C)C)cc1 (stereo not drawn) [Example 431, N-[2,4-bis(methylthio)-6-methyl-3-pyridyl]-α-hexylthio-4-tert-butylphenylacetamide]	< 1000 nM
CSc1cc(C)nc(SC)c1NC(=O)C(SCc1ccccc1)c1ccc(C(C)(C)C)cc1 (stereo not drawn) [Example 435, N-[2,4-bis(methylthio)-6-methyl-3-pyridyl]-α-benzylthio-4-tert-butylphenylacetamide]	< 1000 nM
CCCCOc1ccc(CSC(C(=O)Nc2c(SC)cc(C)nc2SC)c2ccc(-c3ccccc3)cc2)cc1 (stereo not drawn) [Example 467, N-[2,4-bis(methylthio)-6-methyl-3-pyridyl]-α-(4-butoxy-benzylthio)-4-biphenylacetamide]	< 1000 nM

More lines, now with the values ahead:

IC50	Compound
< 1000 nM	CSc1cc(C)nc(SC)c1NC(=O)C(SCc1ccc(Cl)cc1)c1ccc(C(C)(C)C)cc1 (stereo not drawn) [Example 437, N-[2,4-bis(methylthio)-6-methyl-3-pyridyl]-α-(4-chloro-benzylthio)-4-tert-butylphenylacetamide]
< 1000 nM	CSc1cc(C)nc(SC)c1NC(=O)C(SCc1ccc(C(C)(C)C)cc1)c1ccc(C(C)(C)C)cc1 (stereo not drawn) [Example 439, N-[2,4-bis(methylthio)-6-methyl-3-pyridyl]-α-(4-tert-butyl-benzylthio)-4-tert-butylphenylacetamide]
< 1000 nM	CSc1cc(C)nc(SC)c1NC(=O)C(SCc1ccccc1)c1ccc(-c2ccccc2)cc1 (stereo not drawn) [Example 463, N-[2,4-bis(methylthio)-6-methyl-3-pyridyl]-α-benzylthio-4-biphenylacetamide]
< 1000 nM	CSc1cc(C)nc(SC)c1NC(=O)C(SCc1ccc(F)cc1)c1ccc(-c2ccccc2)cc1 (stereo not drawn) [Example 464, N-[2,4-bis(methylthio)-6-methyl-3-pyridyl]-α-(4-fluoro-benzylthio)-4-biphenylacetamide]
< 1000 nM	COc1ccc(CSC(C(=O)Nc2c(SC)cc(C)nc2SC)c2ccc(-c3ccccc3)cc2)cc1 (stereo not drawn) [Example 465, N-[2,4-bis(methylthio)-6-methyl-3-pyridyl]-α-(4-methoxy-benzylthio)-4-biphenylacetamide]
< 1000 nM	CSc1cc(C)nc(SC)c1NC(=O)C(SCc1cccnc1)c1ccc(-c2ccccc2)cc1 (stereo not drawn) [Example 484, N-[2,4-bis(methylthio)-6-methyl-3-pyridyl]-α-(3-pyridyl-methylthio)-4-biphenylacetamide]
< 1000 nM	CCCCCCSC(C(=O)Nc1c(SC)cc(C)nc1SC)c1ccc([N+](=O)[O-])cc1 (stereo not drawn) [Example 487, N-[2,4-bis(methylthio)-6-methyl-3-pyridyl]-α-hexylthio-4-nitro-phenylacetamide]
< 1000 nM	CCCCCCSC(C(=O)Nc1c(SC)cc(C)nc1SC)c1ccc2c(c1)OCO2 (stereo not drawn) [Example 515, N-[2,4-bis(methylthio)-6-methyl-3-pyridyl]-α-hexylthio-3,4-methylenedioxyphenylacetamide]
